Data from PubChem BioAssay AID1259407 (Chemical Carcinogenesis Research Information System (CCRIS), 2018).
Activity calls are given as the source filed them. The rule behind the calls is not given here.

System: CCRIS mutagenicity, Ames/micronucleus/aberration tests
Assay: CCRIS mutagenicity studies
[1] = Test System: AMES SALMONELLA TYPHIMURIUM, Strain/Indicator: TA98, Metabolic Activation: NONE, Method: STANDARD PLATE
[2] = Test System: AMES SALMONELLA TYPHIMURIUM, Strain/Indicator: TA100, Metabolic Activation: NONE, Method: STANDARD PLATE
[3] = Test System: AMES SALMONELLA TYPHIMURIUM, Strain/Indicator: TA1537, Metabolic Activation: NONE, Method: STANDARD PLATE

With CCc1cc2ccccc2c2ccc3c(c12)[C@@H]1O[C@@H]1[C@H](O)[C@H]3O the mutagenic call (Test System: AMES SALMONELLA TYPHIMURIUM, Strain/Indicator: TA100, Metabolic Activation: NONE, Method: PREINCUBATION) was “active; positive”.
With ClCc1ccc(CCl)cc1 the mutagenic call [1] was “inactive; negative”.
For Cc1cccc2c1c([N+](=O)[O-])cc[n+]2[O-], the mutagenic call (Test System: UDS RODENT PRIMARY CELLS, Strain/Indicator: THY INCORP (NON-S-PHASE), Metabolic Activation: NONE, Method: AUTORADIOGRAPHY) was “active; positive”.
For O=c1nc(NO)ccn1[C@@H]1O[C@H](CO)[C@@H](O)[C@H]1O, the mutagenic call (Test System: E. COLI, Strain/Indicator: WP2, Metabolic Activation: NONE, Method: STANDARD PLATE) was “active; positive” and the mutagenic call (Test System: E. COLI, Strain/Indicator: WP2 UVRA, Metabolic Activation: NONE, Method: STANDARD PLATE) was “active; positive”.
With c1ccc([C@H]2N[C@@H]2c2ccccc2)cc1 the mutagenic call [1] was “inactive; negative”, the mutagenic call [2] was “active; positive” and the mutagenic call [3] was “inactive; negative”.
In the case of Cc1c(-c2cnccn2)ssc1=S, the mutagenic call [1] is reported as “inactive; negative”, the mutagenic call (Test System: AMES SALMONELLA TYPHIMURIUM, Strain/Indicator: TA98, Metabolic Activation: RAT, LIVER, S-9, AROCLOR 1254 OR PHENOBARBITOL, Method: STANDARD PLATE) is reported as “inactive; negative” and the mutagenic call [2] is reported as “inactive; negative”. For the same compound, the mutagenic call (Test System: AMES SALMONELLA TYPHIMURIUM, Strain/Indicator: TA100, Metabolic Activation: RAT, LIVER, S-9, AROCLOR 1254 OR PHENOBARBITOL, Method: STANDARD PLATE) was “inactive; negative”, the mutagenic call (Test System: AMES SALMONELLA TYPHIMURIUM, Strain/Indicator: TA1535, Metabolic Activation: NONE, Method: STANDARD PLATE) was “inactive; negative” and the mutagenic call (Test System: AMES SALMONELLA TYPHIMURIUM, Strain/Indicator: TA1535, Metabolic Activation: RAT, LIVER, S-9, AROCLOR 1254 OR PHENOBARBITOL, Method: STANDARD PLATE) was “inactive; negative”. For the same compound, the mutagenic call [3] was “inactive; negative”, the mutagenic call (Test System: AMES SALMONELLA TYPHIMURIUM, Strain/Indicator: TA1537, Metabolic Activation: RAT, LIVER, S-9, AROCLOR 1254 OR PHENOBARBITOL, Method: STANDARD PLATE) was “inactive; negative” and the mutagenic call (Test System: AMES SALMONELLA TYPHIMURIUM, Strain/Indicator: TA1538, Metabolic Activation: NONE, Method: STANDARD PLATE) was “inactive; negative”. For the same compound, the mutagenic call (Test System: AMES SALMONELLA TYPHIMURIUM, Strain/Indicator: TA1538, Metabolic Activation: RAT, LIVER, S-9, AROCLOR 1254 OR PHENOBARBITOL, Method: STANDARD PLATE) was “inactive; negative”.
In the case of ClC(Cl)(Cl)c1nc(-c2ccc3c(c2)OCO3)nc(C(Cl)(Cl)Cl)n1, the mutagenic call (End Point: In vitro chromosomal aberrations, Test System: Chinese hamster lung (CHL/IU) cells, Metabolic Activation: Rat, Liver, S-9, Phenobarbital and 5,6-benzoflavone) is reported as “active; positive (structural changes and ploidy). ploidy response weak and not dose rela”, the mutagenic call (Test System: Ames Salmonella typhimurium, Strain/Indicator: TA98, Metabolic Activation: None, Method: Preincubation) is reported as “inactive; negative” and the mutagenic call (Test System: Ames Salmonella typhimurium, Strain/Indicator: TA98, Metabolic Activation: Rat, Liver, S-9, Phenobarbital and 5,6-benzoflavone, Method: Preincubation) is reported as “inactive; negative”. The mutagenic call (Test System: Ames Salmonella typhimurium, Strain/Indicator: TA100, Metabolic Activation: None, Method: Preincubation) was “active; positive”, the mutagenic call (Test System: Ames Salmonella typhimurium, Strain/Indicator: TA100, Metabolic Activation: Rat, Liver, S-9, Phenobarbital and 5,6-benzoflavone, Method: Preincubation) was “active; positive” and the mutagenic call (Test System: Ames Salmonella typhimurium, Strain/Indicator: TA1535, Metabolic Activation: None, Method: Preincubation) was “inactive; negative”. For the same compound, the mutagenic call (Test System: Ames Salmonella typhimurium, Strain/Indicator: TA1535, Metabolic Activation: Rat, Liver, S-9, Phenobarbital and 5,6-benzoflavone, Method: Preincubation) was “active; positive”, the mutagenic call (Test System: Ames Salmonella typhimurium, Strain/Indicator: TA1537, Metabolic Activation: None, Method: Preincubation) was “inactive; negative” and the mutagenic call (Test System: Ames Salmonella typhimurium, Strain/Indicator: TA1537, Metabolic Activation: Rat, Liver, S-9, Phenobarbital and 5,6-benzoflavone, Method: Preincubation) was “inactive; negative”. For the same compound, the mutagenic call (Test System: E. coli, Strain/Indicator: WP2uvrA/pKM101, Metabolic Activation: None, Method: Preincubation) was “inactive; negative” and the mutagenic call (Test System: E. coli, Strain/Indicator: WP2uvrA/pKM101, Metabolic Activation: Rat, Liver, S-9, Phenobarbital and 5,6-benzoflavone, Method: Preincubation) was “inactive; negative”.
Cc1c(C)c2c(Cl)c3ccccc3nc2c2ccccc12 was tested, and the mutagenic call (Test System: AMES SALMONELLA TYPHIMURIUM, Strain/Indicator: TA97, Metabolic Activation: NONE, Method: PREINCUBATION) was “active; positive”, the mutagenic call (Test System: AMES SALMONELLA TYPHIMURIUM, Strain/Indicator: TA97, Metabolic Activation: NONE, Method: STANDARD PLATE) was “active; positive” and the mutagenic call (Test System: AMES SALMONELLA TYPHIMURIUM, Strain/Indicator: TA98, Metabolic Activation: NONE, Method: PREINCUBATION) was “active; positive”. For the same compound, the mutagenic call (Test System: AMES SALMONELLA TYPHIMURIUM, Strain/Indicator: TA1537, Metabolic Activation: NONE, Method: PREINCUBATION) was “active; positive”.
